According to patent US20230371515A1, “FUNGICIDAL COMBINATION” (UPL Limited, priority 2020, published 2023):
Like-named read-outs stand apart in the source and are kept apart here.

Experiments:
Botrytis cinerea = test: Fungicidal efficacy trial (% control) on Botrytis cinerea, synergy by Colby's equation; format: cell-based; conditions: concentration 0.01 mg/L, observed efficacy
From the text: [table] Colby's equation was used to determine the fungicidal effects expected from the mixtures. The following equation was used to calculate the expected activity of mixtures containing two active ingredients, A and B: Expected=A+B−(A×B/100) • A=observed efficacy of active component A at the same concentration as used in the mixture; • B=observed efficacy of active component B at the same concentration as used in the mixture.

[1] = system: spores of Botrytis cinerea; test: EC50 for in vitro inhibition of 50% of fungal population of spores of Botrytis cinerea; format: cell-based
Procedure: As used herein, according to the Fungicide Resistance Action Committee (FRAC), ‘EC50’ is defined as the fungicide dose that inhibits growth by 50% when compared with a nonamended control.
The EC50 values were evaluated to determine a lower concentration of the fungicides and the combination to achieve in vitro inhibition of 50% of fungal population of spores of Botrytis cinerea.

Structure (SMILES) | % control (Botrytis cinerea) | EC50 ([1]; read-out: EC50) | EC50 [1]
O=C1C2CC=CCC2C(=O)N1SC(Cl)(Cl)Cl (stereo not shown) [Captan] | 11.54% | 0.15 µg/mL | 
COc1ccnc(C(=O)N[C@H]2COC(=O)[C@H](Cc3ccccc3)[C@@H](OC(=O)C(C)C)[C@H](C)OC2=O)c1OCOC(=O)C(C)C [Fenpicoxamide] | 15.45% |  | 0.46 µg/mL
